Patent US20100069340A1, “PHARMACEUTICAL COMPOSITIONS OF AN SRC KINASE INHIBITOR AND AN AROMATASE INHIBITOR” (Wyeth, priority 2008, published 2010)
Like-named read-outs stand apart in the source and are kept apart here.

Assays:
[1] = system: advanced or metastatic breast cancer; experiment: Phase 2 open-label study of bosutinib, efficacy; format: in vivo, human; details: 400 mg once-daily
Protocol: In a phase 2, open-label, study of bosutinib in subjects with advanced or metastatic breast cancer where bosutinib is given at 400 mg once-daily, 73 total patients were randomized. As of 9 Jun. […] All of the responding patients had ER/PgR+ metastatic disease, but were less heavily pretreated with chemotherapy than typical patients and none had received prior endocrine therapy. […] In that trial, the median PFS was 15 weeks for all patients, 15.6 weeks and 14.9 weeks in ER+ and/or PgR+ and ER+ and/or PgR+, HER2-patients subgroups, respectively. There were 51 ER/PgR+ patients enrolled in the trial and a little more than half had received prior endocrine therapy, out of them 33 patients were ER/PgR+, HER2-. The preliminary safety data available for 73 subjects as of 9 Jun. 2008 are consistent with data from other ongoing studies. TEAEs were most frequently associated with gastrointestinal disorders (diarrhea, 66%; nausea, 55%; vomiting, 47%; abdominal pain, 12%; dyspepsia, 10%), general disorders (fatigue, 26%, asthenia, 19%, peripheral oedema, 11%; pyrexia, 10%), infections and infestations (16%), metabolism disorders (ALT increase, 12%; AST increase, 12%, weight loss, 11%; anorexia, 18%), musculoskeletal disorders (anthralgia, 12%; back pain, 12%), headache (14%), and rash (14%). Out of all of these TEAEs, only gastrointestinal disorders (diarrhea, 64%; nausea, 51%; vomiting, 42%; abdominal pain, 10%), general disorders (fatigue, 16%, asthenia, 14%), metabolism disorders (ALT increase, 11%; AST increase, 10%; anorexia, 15%) and rash (10%) were considered at least possibly related to bosutinib.

MCF7 = experiment: Cell proliferation assay (CellTiter Glo), MCF7; format: cell-based; details: for IC50: Homo sapiens
Protocol: (§1) Cell lines were obtained from ATCC. Estrogen was obtained from SIGMA, 4-hydroxytamoxifen was obtained from SIGMA, Bosutinib was used for these studies. Charcoal-stripped serum and phenol red-free medium was obtained from Invitrogen. CellTiter Glo was obtained from Promega.
(§2) Cell cultures. Proliferation assays with cells in complete fetal calf serum were performed with medium containing phenol red. For all assays examining estrogen-dependence, cells were cultured in phenol red-free medium; DMEM/F12 (MCF7), RPMI1640 (MDA-MB-361, T47D) MEM (BT20, MDA-MB-231) McCoys5A modified (SKBR3), Leibowitz' L15 medium supplemented with 10 ng/mL insulin (MDA-MB-435 and MDA-MB-468) with 10% fetal bovine serum supplemented with glutamine and gentamicin. For proliferation assays, trypsinized cells were subjected to three cycles of centrifugation and resuspension in phenol red-free medium supplemented with charcoal stripped medium (5% final), glutamine and Pen/Strep. Cells were plated on day 0, with or without estrogen (10 nM final concentration). On day 1, 4-hydroxytamoxifen and SKI-606 or DMSO were added as a serial dilution. Cells were incubated for 7 days, after which CellTiter Glo (Promega) was added as recommended by the manufacturer. After mixing and two hours incubation on the bench, plates were read on an Envision reader. […] The 10 uM data point was dropped for these two lines since there was a clear plateau prior to the sharp drop in luminescence observed at 10 uM compound. The IC50 was calculated using a floating minima corresponding to the lowest luminescence value at 5 uM.
(§3) Cell proliferation assays were performed in two formats; a three day proliferation assay in fully supplemented medium with phenol red, and a 7 day proliferation assay in phenol red free medium supplemented with charcoal-stripped medium. […] ER positive T47D cells were slightly more sensitive to SKI-606 in the presence of estrogen. BT20 cells were equally sensitive to SKI-606 in stripped serum medium, regardless of whether estrogen was present.
(§4) Proliferation data for SKI-606 in various breast tumor lines in complete medium (10% FCS) and charcoal stripped serum with no phenol red (no E2, E2) with and without 10 nM estrogen. The complete medium data were obtained in 3-day assays, while stripped serum assays were extended for 7 days with one change of medium at day 5. The IC50 values for the BT20 line was calculated using the “plateau” cell number evident at 5 μM SKI-606.

MDA-MB-361 = experiment: Cell proliferation assay (CellTiter Glo), MDA-MB-361; format: cell-based; details: for IC50: Homo sapiens
Protocol: as §1, §2, §3, §4

COc1cc(Nc2c(C#N)cnc3cc(OCCCN4CCN(C)CC4)c(OC)cc23)c(Cl)cc1Cl [bosutinib]
tumor shrinkage in the near response [1]: 29%
clinical benefit ([1]; 73 patients, responders plus stable disease ≧24 weeks): 27.4%
near response ([1]; of 73 patients): 1
partial response ([1]; of 73 patients): 4 subjects
stable disease ≧24 weeks ([1]; of 73 patients): 13 patients
median PFS ([1]; ER+ and/or PgR+ subgroup): 15.6 weeks
median PFS ([1]; ER+ and/or PgR+, HER2- subgroup): 14.9 weeks
median PFS ([1]; all patients): 15 weeks
IC50 (MCF7; MCF7, 72 h, 3 Day assay, complete medium (10% FCS), read-out: IC50 (uM) 10% FCS): 6.5 µM
IC50 (MCF7; MCF7, 168 h, 7 Day assay, charcoal stripped serum, no phenol red, 10 nM estrogen, read-out: IC50 (uM) E2): 0.86 µM
IC50 (MCF7; MCF7, 168 h, 7 Day assay, charcoal stripped serum, no phenol red, without estrogen, cells did not grow well, data less reliable, read-out: IC50 (uM) no E2): 0.08 µM
effect on estrogen-dependent and estrogen-independent growth (MCF7; MCF7): inhibited estrogen-dependent and estrogen-independent growth
toxicity at maximal concentration (MDA-MB-361; 10 uM SKI-606, MDA-MB-361 cells): some toxicity was seen
IC50 (MDA-MB-361; MDA-MB-361, 72 h, 3 Day assay, complete medium (10% FCS), read-out: IC50 (uM) 10% FCS): 2.5 µM
IC50 (MDA-MB-361; MDA-MB-361, 168 h, 7 Day assay, charcoal stripped serum, no phenol red, 10 nM estrogen, read-out: IC50 (uM) E2): 0.38 µM
IC50 (MDA-MB-361; MDA-MB-361, 168 h, 7 Day assay, charcoal stripped serum, no phenol red, without estrogen, read-out: IC50 (uM) no E2): 0.74 µM
effect on estrogen-dependent and estrogen-independent growth (MDA-MB-361; MDA-MB-361): inhibited estrogen-dependent and estrogen-independent growth
